From patent US20250092036A1, “COMPOUNDS AND COMPOSITIONS FOR MODULATING THE ACTIVITY OF ERK” (Novartis AG, priority 2023, published 2025)
Read-outs that look alike come from different tables or passages of the source.

Tests used:
[1] = molecular target: T1, ERK2[2-360(p-T185/p-Y187)]-Avi (Homo sapiens, UniProt P28482); test: Biochemical assay (HTRF competition assay); assay type: binding; settings: HTRF competition with Example 15 probe, overnight at RT; read-out: Biochemical qualified AC50
T1 construct: 400 pM ERK2[2-360(p-T185/p-Y187)]-Avi was added to the plate
T1 sequence (P28482 2-360 limits assumed): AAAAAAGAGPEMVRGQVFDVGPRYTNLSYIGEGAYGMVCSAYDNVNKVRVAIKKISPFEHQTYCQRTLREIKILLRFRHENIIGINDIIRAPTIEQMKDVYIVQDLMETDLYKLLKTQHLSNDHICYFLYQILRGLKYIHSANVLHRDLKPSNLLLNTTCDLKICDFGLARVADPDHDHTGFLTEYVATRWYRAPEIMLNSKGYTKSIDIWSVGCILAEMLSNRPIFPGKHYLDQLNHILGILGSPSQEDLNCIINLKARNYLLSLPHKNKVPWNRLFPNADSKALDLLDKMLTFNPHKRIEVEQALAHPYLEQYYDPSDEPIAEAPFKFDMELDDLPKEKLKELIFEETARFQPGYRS
Procedure: The competition assays were performed at RT in a 384-well white polystyrene, flat bottom plate (Greiner #784075) using a final reaction volume of 15 μL and the following assay buffer conditions: 50 mM MOPS, pH 7.2, 10 mM MgCl2, 0.5 mM TCEP, 0.01% Triton-X-100. 75 nL of a 10 mM compound solution in DMSO or 100% DMSO (12 point titration, final concentration: 50 μM-300 pM; final DMSO: 0.5%) was added using an acoustic liquid handler (Echo, Beckman Coulter) to wells containing 7.5 μL of 1-(6-((R)-3-(1-(5-chloro-1-((tetrahydro-2H-pyran-4-yl)methyl)-1H-indole-3-carbonyl)-4-(4-fluorophenyl)piperidine-4-carboxamido)pyrrolidin-1-yl)-6-oxohexyl)-3,3-dimethyl-5-sulfo-2-((1E,3E)-5-((E)-1,3,3-trimethyl-5-sulfoindolin-2-ylidene)penta-1,3-dien-1-yl)-3H-indol-1-ium (Example 15); 7.5 μL 400 pM SA-Tb (Cisbio, 610SATLB) and 400 pM ERK2[2-360(p-T185/p-Y187)]-Avi was added to the plate and incubated overnight at RT. HTRF signal was measured using a microplate reader (PheraStar, BMG Labtech) with excitation and emission wavelengths of […], respectively. The inhibitor dose-response curves were analyzed from the HTRF ratio signal using normalized IC50 regression curve fitting with control-based normalization.

[2] = molecular target: T2, nanobit-large-bit-ERK2 and nanobit-small-bit-PEA15 in WM793 cells (Homo sapiens, UniProt P28482); test: NanoBiT assay; assay type: cell-based; settings: WM793 nanobit stable cell line, overnight incubation; read-out: NanoBiT qualified absolute AC50
T2 construct: expressed in transfected cells
T2 sequence (P28482 whole entry): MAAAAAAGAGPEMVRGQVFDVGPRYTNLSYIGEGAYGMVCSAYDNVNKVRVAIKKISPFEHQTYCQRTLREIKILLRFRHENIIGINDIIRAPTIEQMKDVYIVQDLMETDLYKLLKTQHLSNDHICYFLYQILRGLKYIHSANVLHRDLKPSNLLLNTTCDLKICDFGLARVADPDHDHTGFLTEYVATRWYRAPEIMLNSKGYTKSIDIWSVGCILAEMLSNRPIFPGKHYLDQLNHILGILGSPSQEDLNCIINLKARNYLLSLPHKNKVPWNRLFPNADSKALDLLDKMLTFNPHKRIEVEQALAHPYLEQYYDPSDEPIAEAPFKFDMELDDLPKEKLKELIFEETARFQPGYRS
Procedure: (§1) Cancer cell media was prepared by adding 500 mL of RPMI (ThermoFisher cat ##22400-089) and 10% Fetal Bovine Serum (Gibco) for WM793 cells (ATCC Cat #CRL-2806, RRID: CVCL 8787) and F12K (Thermo Fisher cat #21127-022, 500 mL; or 21127-030, 10×500 mL)+10% FBS for PC3 (ATCC CRL-1435) cells. The entire media with supplements was filter sterilized through a 0.4 μm bottle top filter system. Cancer cell lines were detached from traditional cell culture flasks by washing three times with 1×PBS and adding an appropriate amount of 0.25% TrypLE™ Express Enzyme (1×), no phenol red (ThermoFisher cat #12604013) to create a thin layer over the cells. Trypsin was neutralized with media containing serum and proceeded to count the cells.
A nanobit stable cell line was generated using WM793 cells with nanobit-large-bit-ERK2 and nanobit-small-bit-PEA15. […] In a biological safety cabinet, cells were seeded using a sterilized small stainless steel tipped cassette on a Multi-drop Combi. Between different cell lines, the tubing of the cassette was flushed with 1× sterile PBS for 10 s. Alternatively, cells can be seeded using a Multi-flow located within a Hepa filtered robotics room using either a sterilized small sapphire jewel tipped cassette and the peristatic pump, or the attached syringe pump, depending on volume of plates per cell line needed. The plates were placed in an incubator set at 37° C., with 5% CO2 and 95% relative humidity. A 10-point, 3-fold serial dilution of compounds was prepared in 100% DMSO on a liquid handling robot with a 10 mM top concentration. 90 nl/well was dispensed in three assay plates/1 compound source plate, with the highest concentration at 30 μM. After addition of compound was complete, the plates were placed into an incubator at 37° C., with 5% CO2 and 95% relative humidity for overnight. Luminescence was captured on a plate luminometer such as an Envision or View Lux to measure Day 0 time point both select cell lines. LUM plus, gain 3500, 0.1 s and focal height 12.5 [mm] on PheraStar reader. The raw data was extracted from the instrument and normalized all fields containing test compounds to the average of all wells containing DMSO alone as neutral control. From this value, the percent growth inhibition was calculated for each compound. Dose response curves and inhibitory IC50s were generated by graphing the normalized data values against the compound concentration using either a program such as GraphPad™ or Excel Fit.

WM793 cells = test: Cell proliferation assay (CellTiter-Glo); assay type: cell-based; settings: 3 d, read-out: Cell proliferation qualified AC50
Procedure: as §1
After counting the cells, the concentration of the cell solution was adjusted to seed a total of 750 cells per well in 50 μL of complete media into 384-well tissue culture treated plates. In a biological safety cabinet, cells were seeded using a sterilized small stainless steel tipped cassette on a Multi-drop Combi. Between different cell lines, the tubing of the cassette was flushed with 1× sterile PBS for 10 seconds. Alternatively, cells can be seeded using a Multi-flow located within a Hepa filtered robotics room using either a sterilized small sapphire jewel tipped cassette and the peristatic pump, or the attached syringe pump, depending on volume of plates per cell line needed. The plates were placed in an incubator set at 37° C., with 5% CO2 and 95% relative humidity. A 10-point, 3-fold serial dilutions of compounds in 100% DMSO was prepared on a liquid handling robot with a 10 mM top concentration. 100 nL/well in three assay plates/1 compound was dispensed to source plate, with the highest concentration at 20 μM. After addition of compound was complete, plates were placed into an incubator at 37° C., with 5% CO2 and 95% relative humidity for 3 d. An adequate volume of CellTiter-Glo® (Promega #G7571) detection reagent was pre-warmed to RT or in a 37° C. H2O bath. 25 μL of the reagent was added to each well using either a Multi-drop Combi or MultiFlo and incubate at RT for at least 15 min. Luminesce was captured on a plate luminometer such as an Envision or View Lux to measure Day 0 time point both select cell lines. LUM plus, gain 3500, 0.1 s and focal height 12.5 mm on PheraStar reader. At Day 3, an adequate volume of CellTiter-Glo® detection reagent was pre-warmed at RT or in a 37° C. H2O bath. A total of 25 μL of the reagent was added to each well using either a Multi-drop Combi or MultiFlo and incubate at RT for at least 15 min. Luminesce was captured on a plate luminometer such as an Envision or View Lux to measure Day 3 time point both select cell lines. LUM plus, gain 3500, 0.1 s and focal height 12.5 mm on PheraStar reader. Raw data was extracted from the instrument and all fields containing test compounds were normalized to the average of all wells containing DMSO alone from Day 3 as neutral control and Day 0 starting numbers. From this value, percent growth inhibition of each compound was calculated. Dose response curves and growth inhibitory IC50s were generated by graphing the normalized data values against the compound concentration using a program such as GraphPad™ or Excel Fit.

AC50 [2]	SMILES	AC50 [1]	AC50 (WM793 cells; Homo sapiens, WM793, 72 h)	AC50 (WM793 cells)
270 nM	Cc1c(C[C@H]2CC[C@H](OC(C)C)CC2)c2ccc(F)cc2n1C(=O)N1CC[C@@](C(=O)N[C@H]2CC[C@H](C(=O)O)C[C@@H]2C)(c2ccc(F)cc2)C[C@@H]1C [Example 1l]	< 0.28 nM	18 nM	
19 nM	CCc1c(C[C@H]2CC[C@H](OC3CCOCC3)CC2)c2ccc(F)cc2n1C(=O)N1CCC(C(=O)N[C@H]2CC[C@H](C(=O)O)CC2(C)C)(c2ccc(F)cc2)CC1 [Example 1e]	< 0.28 nM	70 nM	
24 nM	C[C@H]1C[C@@H](C(=O)O)CC[C@@H]1NC(=O)[C@@]1(c2ccc(F)cc2)CCN(C(=O)N2CC([C@H]3CC[C@H](OC4CCOCC4)CC3)c3ccc(F)cc32)[C@@H](C)C1 (single isomer, unassigned) [Example 4a]	0.87 nM	4 nM	
	CN1CCC(NC(=O)C2(c3ccc(F)cc3)CCN(C(=O)c3c(C=O)n(CC4CCOCC4)c4ccc(Cl)cc34)CC2)CC1 [Example 11d]		430 nM	
80 nM	CCO[C@H]1CC[C@H](Cc2c(C)n(C(=O)N3CCC(C(=O)N[C@H]4CC[C@H](C(=O)O)C[C@@H]4C)(c4ccc(F)cc4)CC3)c3cc(F)ccc23)CC1 [Example 7, (1S,3S,4S)-4-(1-(3-(((1r,4S)-4-ethoxycyclohexyl)methyl)-6-fluoro-2-methyl-1H-indole-1-carbonyl)-4-(4-fluorophenyl)piperidine-4-carboxamido)-3-methyl cyclohexane-1-carboxylic acid]	0.33 nM	96 nM	
26 nM	Cc1c(C[C@H]2CC[C@H](OC3CCOCC3)CC2)c2ccc(F)cc2n1C(=O)N1CC[C@@](C(=O)N[C@H]2CC[C@H](C(=O)O)C[C@@H]2C)(c2ccc(F)cc2)C[C@@H]1C [Example 9, (1S,3S,4S)-4-((2S,4S)-1-(6-fluoro-2-methyl-3-(((1r,4S)-4-((tetrahydro-2H-pyran-4-yl)oxy)cyclohexyl)methyl)-1H-indole-1-carbonyl)-4-(4-fluorophenyl)-2-methylpiperidine-4-carboxamido)-3-methylcyclohexane-1-carboxylic acid]	0.44 nM	5.9 nM	
30 nM	CCc1c(C[C@H]2CC[C@H](OC3CCOCC3)CC2)c2ccc(F)cc2n1C(=O)N1CC[C@@](C(=O)N[C@H]2CC[C@H](C(=O)O)C[C@@H]2C)(c2ccccc2)C[C@@H]1C [Example 1j]	< 0.28 nM	29 nM	
160 nM	CCc1c(C[C@H]2CC[C@H](OC3CCOCC3)CC2)c2ccc(F)cc2n1C(=O)N1CC[C@@](C(=O)N[C@H]2CC[C@H](C(=O)O)C[C@@H]2C)(c2ccc(F)c(F)c2)C[C@@H]1C [Example 1a]	< 0.28 nM	10 nM	
	CN1CC[C@@H](NC(=O)C2(c3ccc(F)cc3)CCN(C(=O)c3c(C=O)n(CC4CCOCC4)c4ccc(Cl)cc34)CC2)C1 [Example 11f]		140 nM	
	CN1CC[C@@H](NC(=O)C2(c3ccccc3)CCN(C(=O)c3c(C=O)n(CC4CCOCC4)c4ccc(Cl)cc34)CC2)C1 [Example 11a]	0.87 nM	300 nM	
	C[C@H]1[C@@H](NC(=O)C2(c3ccc(F)cc3)CCN(C(=O)c3c(C=O)n(CC4CCOCC4)c4ccc(Cl)cc34)CC2)CN1C [Example 11c]		17 nM	
	O=Cc1c(C(=O)N2CCC(C(=O)N[C@H]3CNC[C@H]3F)(c3ccc(F)cc3)CC2)c2cc(Cl)ccc2n1CC1CCOCC1 [Example 14, 1-(5-chloro-2-formyl-1-((tetrahydro-2H-pyran-4-yl)methyl)-1H-indole-3-carbonyl)-4-(4-fluorophenyl)-N-((3S,4R)-4-fluoropyrrolidin-3-yl)piperidine-4-carboxamide]	0.48 nM	120 nM	
	CN1CC(NC(=O)C2(c3ccc(F)cc3)CCN(C(=O)c3c(C=O)n(CC4CCOCC4)c4ccc(Cl)cc34)CC2)C1 [Example 11e]		290 nM	
	CN1C[C@@H](F)[C@@H](NC(=O)C2(c3ccc(F)cc3)CCN(C(=O)c3c(C#N)n(CC4CCOCC4)c4ccc(Cl)cc34)CC2)C1 [Example 11j]	0.97 nM	730 nM	
	CN1C[C@@H](F)[C@@H](NC(=O)C2(c3ccc(F)cc3)CCN(C(=O)c3c(C(F)F)n(CC4CCOCC4)c4ccc(Cl)cc34)CC2)C1 [Example 11i]	0.72 nM	54 nM	

SMILES	AC50 [2]	AC50 [1]	AC50 (WM793 cells; Homo sapiens, WM793, 72 h)	AC50 (WM793 cells)
Cc1c(C(=O)N2CCC(C(=O)N[C@H]3CN(C)C[C@H]3F)(c3ccc(F)cc3)CC2)c2cc(Cl)ccc2n1CC1CCOCC1 [Example 12, 1-(5-chloro-2-methyl-1-((tetrahydro-2H-pyran-4-yl)methyl)-1H-indole-3-carbonyl)-N-((3S,4R)-4-fluoro-1-methylpyrrolidin-3-yl)-4-(4-fluorophenyl)piperidine-4-carboxamide]	350 nM	1.3 nM	270 nM	
CN1CC[C@@H](NC(=O)C2(c3ccc(Cl)cc3)CCN(C(=O)c3c(C=O)n(CC4CCOCC4)c4ccc(Cl)cc34)CC2)C1 [Example 11b]	560 nM	0.65 nM	220 nM	
CCc1c(C[C@H]2CC[C@H](OC3CCOCC3)CC2)c2ccc(F)cc2n1C(=O)N1CC[C@@](C(=O)N[C@H]2CC[C@H](C(=O)O)C[C@@H]2C)(c2ccc(F)cc2)C[C@@H]1C [Example 6, (1S,3S,4S)-4-((2S,4S)-1-(2-ethyl-6-fluoro-3-(((1r,4S)-4-((tetrahydro-2H-pyran-4-yl)oxy)cyclohexyl)methyl)-1H-indole-1-carbonyl)-4-(4-fluorophenyl)-2-methylpiperidine-4-carboxamido)-3-methylcyclohexane-1-carboxylic acid]	72 nM	0.98 nM		23 nM
